Here are results for nine compounds from patent US8623865B2, “Acylpiperazinones and their use as pharmaceuticals” (Fab Parma S.A.S, priority 2009, dated 2014).

For orientation: LD50 means the dose at which mortality reaches 50%. One may read the MIC as the smallest concentration in the dilution series that meets the test's criterion for growth inhibition. Usually IC50 stands for the midpoint of a concentration-inhibition curve.

≈ marks a conversion by molar mass, not a printed value. Where “and” joins values, the source holds several entries; their conditions need not be identical. Identical values can stand only once. Like-named read-outs stand apart in the source and are kept apart here.

The conditions of data set [1]: rats, intravenous; cited from earlier work.
The subject of data set [2] is MRSA (IHMA #510059). The data set can be described thus: MIC, broth microdilution (susceptibility method), MRSA. The following applies: Staphylococcus aureus, read-out: MIC MRSA (IHMA #510059). It is filed as cell-based. The method, then: (§1) Antibacterial activity was determined on MSSA CIP 54.146 provided by the Centre de Ressources Biologiques de l'Institut Pasteur. Antibacterial activity was also determined on MRSA (IHMA #510059) and MSSA (IHMA #555189).
(§2) Minimum inhibitory concentrations (MICs) were determined by broth microdilution according to CLSI guidelines (CLSI, M100-20^1, M7-A8^2, M27-A3^3). The compounds were tested in the range from […]. Colonies were taken directly from a second-pass culture plate and prepared to a suspension equivalent to the 0.5 McFarland standard using normal saline. […] The panels were incubated at 35° C. for 16 to 20 hours before reading the MIC endpoints. The compounds of Examples 4 to 8 were dissolved in DMSO to make the initial solutions of 5120 μg/ml. These solutions were diluted 1:10 in sterile water to a stock solution of 512 μg/ml. The stock solutions were further diluted into the appropriate broth medium for the sequential dilutions used in the broth microdilution panels. S. pneumoniae was tested in Mueller Hinton (MH) broth with 3% lysed horse blood and C. albicans was tested in RPMI-1640 medium. All other organisms were tested in MH broth.

The subject of data set [3] is MSSA (IHMA #555189). Kind of data set: MIC, broth microdilution (susceptibility method), MSSA. It is filed as cell-based. The following applies: Staphylococcus aureus, read-out: MIC MSSA (IHMA #555189). The method, then: as §1, §2
For orientation: Dilution methods test growth across graded concentrations, often in twofold steps.

In data set [4] the test system is E. coli (ATCC 25922). Kind of data set: MIC, broth microdilution (susceptibility method), E. coli. The following applies: Escherichia coli, ATCC25922, MH broth. It is filed as cell-based. The method, then: as §2
Data set [5] concerns E. faecalis (ATCC 29212). Kind of data set: MIC, broth microdilution (susceptibility method), E. faecalis. In kind it is cell-based. The following applies: Enterococcus faecalis, ATCC29212, MH broth. The method, then: as §2
The subject of data set [6] is S. pneumoniae (ATCC 49619). The data set can be described thus: MIC, broth microdilution (susceptibility method), S. pneumoniae. It is filed as cell-based. The following applies: Streptococcus pneumoniae, ATCC49619, MH broth with 3% lysed horse blood. The method, then:
as §2

Data set [7] deals with C. albicans (ATCC 90028). Kind of data set: MIC, broth microdilution (susceptibility method), C. albicans. In kind it is cell-based. The following applies: Candida albicans, ATCC90028, RPMI-1640 medium. The method, then:
as §2

The target of data set [8] is HSA (Homo sapiens (Human), UniProt P02768). Kind of data set: HSA binding analysis using a chiral HSA column. It is filed as in vitro ADME. The method, then:
The test system used in this analysis was an HSA chiral column.
A 10 mM stock solution of Example 7 (molecular weight of 475.49 and HPLC purity 86.3%) was prepared by dissolving 1.8 mg of a compound of Example 7 in 0.327 ml of DMSO. The compound of Example 7 at a concentration of 100 μM was prepared by diluting the stock solution at 10 mM in DMSO with Potassium phosphate buffer pH 7.0.
The relationship between the retention time (Tr) and percentage of protein binding (PB %) depended on the dead time (T0) and the capacity factor (k′): PB %=[k′/(k′+1)]*100 • where k′=(Tr−T0)/T0 Results

The target in data set [9] is recombinant S. aureus FabI enzyme (Staphylococcus aureus (strain MRSA252), UniProt Q6GI75). Kind of data set: In vitro inhibition of recombinant S. aureus FabI enzyme (fluorescence based assay). The following applies: 60 min pre-incubation. In kind it is biochemical. The method, then: Compound inhibitory activity of FabI enzyme is measured in vitro by the IC50 determination using a fluorescence based assay.
The protein FabI from S. aureus is prepared and purified using standard methods for recombinant protein expression after cloning of the gene in a prokaryotic expression vector.
The biochemical activity of the FabI enzyme is assessed using the following method.
The assay buffer “AB” contained 50 mM ADA (N-(2-acetamido)iminodiacetic acid monosodium salt) pH 6.5, 1 mM dithiothreitol, 0.006% Triton-X100 and 50 mM NaCl. The following components are added in a white polystyrene Costar plate (Ref 3912) up to a final volume of 55.5 μL: 1.5 μL DMSO or inhibitor dissolved in DMSO and 54 μL of a FabI/NADPH/NADP+ mixture in AB. After 60 min of pre-incubation at room temperature, the reaction is started by addition of 5 μL of trans-2-octenoyl N-acetylcysteamine thioester (t-o-NAC) to a final volume of 60.5 μL. This reaction mixture is then composed of 2 nM FabI, 40 μM NADPH (Sigma, N7505), 10 μM NADP+ (Sigma, N5755), 100 μM t-O-NAC and compound at defined concentration. Fluorescence intensity of NADPH (λex=360 nm, λem=520 nm) is measured immediately after t-O-NAC addition (T0), and approximately 50 min later (T50) by a Fluostar Optima (BMG) so as to achieve ±30% of NADPH conversion. Enzyme activity is calculated by first subtracting TO signal to T50 and then subtracting background signal (FabI=0). Percentages of inhibition are calculated against untreated samples (Inhibitor=0) and IC50 are fitted to a classical Langmuir equilibrium model using XLFIT (IDBS).

Data set [10] deals with S. aureus CIP 54.146 (MSSA). Kind of data set: MIC, broth microdilution, S. aureus CIP 54.146 (with and without 80% human serum). In kind it is cell-based. The following applies: Staphylococcus aureus. The method, then:
The compounds of the invention are useful antibacterial agents having a selective spectrum of activity in vitro against bacterial strains relying on FabI and related targets. […] The activity is presented as Minimum Inhibitory Concentration (MIC) expressed in μg/ml and was determined using broth microdilution or Agar dilution methods.
as §1
This protocol is compliant with Clinical Laboratory Standards Institute (CLSI) methodology as described in M7-A7 document of the CLSI. The compound to be tested is diluted according to a geometric series of reason 2 in pure DMSO. Dilutions are transferred in sterile polystyrene microplates, followed by mid-log phase bacteria in cation-adjusted Muller-Hinton broth (ca-MHB, Fluka, Reference 90922) with a final inoculum of 5×10^5 cfu/ml. Microplates are incubated overnight at 35° C. MIC is defined as the lowest concentration of antimicrobial agent that completely prevents visible bacterial growth. All manipulations, but compound handling (in pure DMSO), are performed under sterile conditions. The final concentration of DMSO in the plates is 2%.
In order to evaluate the serum binding of test compounds, MICs were also measured in ca-MHB supplemented with 80% human serum (HS, Sigma, Reference H4522).

The test system of data set [11] is methicillin susceptible Staphylococcus aureus strain ATCC 29213. The data set can be described thus: In vivo protection assay, S. aureus infection of neutropenic mice (survival). More on the design: species or system Swiss mice. The following applies: 48 h.
Setting [12] is: ca-MHB supplemented with 80% human serum, read-out: MIC S. aureus CIP 54.146 in the presence of 80% human serum.
Setting [13] is: ca-MHB, read-out: MIC S. aureus CIP 54.146.

Sequence of HSA (P02768 25-609): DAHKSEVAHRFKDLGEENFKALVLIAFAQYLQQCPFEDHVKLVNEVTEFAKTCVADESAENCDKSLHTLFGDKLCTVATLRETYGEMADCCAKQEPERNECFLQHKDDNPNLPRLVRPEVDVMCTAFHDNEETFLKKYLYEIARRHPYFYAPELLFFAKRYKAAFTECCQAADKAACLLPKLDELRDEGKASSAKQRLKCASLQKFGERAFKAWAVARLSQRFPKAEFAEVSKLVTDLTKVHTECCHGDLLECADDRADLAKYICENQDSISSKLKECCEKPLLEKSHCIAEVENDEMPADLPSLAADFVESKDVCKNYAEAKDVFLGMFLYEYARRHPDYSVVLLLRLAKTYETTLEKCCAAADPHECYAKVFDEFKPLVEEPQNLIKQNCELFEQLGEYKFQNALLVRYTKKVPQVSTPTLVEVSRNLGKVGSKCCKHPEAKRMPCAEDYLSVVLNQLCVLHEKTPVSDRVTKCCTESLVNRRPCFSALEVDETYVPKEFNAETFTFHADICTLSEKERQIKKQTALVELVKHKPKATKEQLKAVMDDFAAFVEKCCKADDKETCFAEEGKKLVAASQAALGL

Regarding `Oc1cc(Cl)ccc1Oc1ccc(Cl)cc1Cl` [Triclosan], the 50% lethal dose (LD50) in data set [1] was 29 mg/kg.

With `CCc1cc(O)c(Oc2ccc(C(=O)N3CCNC(=O)C3C)cc2F)cc1F` (centres unmarked) [Example 8, 4-[4-(4-Ethyl-5-fluoro-2-hydroxyphenoxy)-3-fluorobenzoyl]-3-methyl piperazin-2-one], the MIC in [2] (broth microdilution, MH broth) came to 1 µg/mL (≈ 2.56 µM); in data set [3] (broth microdilution, MH broth), 0.06 µg/mL (≈ 0.154 µM).

In the case of `CCc1cc(O)c(Oc2ccc(C(=O)N3CCN(CN4CCOCC4)C(=O)C3)cc2F)cc1F` [Example 7, 4-[4-(4-Ethyl-5-fluoro-2-hydroxyphenoxy)-3-fluorobenzoyl]-1-(morpholinomethyl)piperazin-2-one], the MIC is 0.06 µg/mL (≈ 0.126 µM) in data set [2]; 0.06 µg/mL (≈ 0.126 µM) in data set [3]; 4 µg/mL (≈ 8.41 µM) in [4]; 64 µg/mL (≈ 135 µM) in data set [5]; above 128 µg/mL in data set [6]; above 128 µg/mL in data set [7]. In addition, the “Binding to HSA (in words)” value in data set [8] is on record as “moderate binding”. In addition, the “HSA Binding (%)” value in data set [8] (37° C., pH 7.0, 100 μM) is listed as 74.9%. The “C (average)” value in data set [8] (average of 3 tests) amounted to 0.75. The “k′ (average)” value in data set [8] (average of 3 tests) was 2.987. In addition, the “k′ (capacity factor)” value in data set [8] (single test) is 2.987 and 2.981 and 2.993.

`CCc1cc(O)c(Oc2ccc(C(=O)N3CCNC(=O)C3)cc2F)cc1F` [Example 1, 4-[4-(4-Ethyl-5-fluoro-2-hydroxyphenoxy)-3-fluorobenzoyl]piperazin-2-one]: the IC50 in data set [9] amounted to 16 nM. Also, the values for the MIC in data set [10] (setting [12]) and in data set [10] (setting [13]) were 0.5 µg/mL and 0.25 µg/mL (≈ 0.664 µM), respectively. Also, the “Protection of infected mice (survival rate)” value in data set [11] (single oral administration, 100 and 200 mg/kg) was “able to protect mice against bacterial dissemination”; in data set [11] (single subcutaneous administration, 6.25 and 12.5 mg/kg), “able to protect mice against bacterial dissemination”.

Take `CCc1ccc(Oc2ccc(C(=O)N3CCNC(=O)C3)cc2F)c(O)c1` [Example 2, 4-[4-(4-Ethyl-2-hydroxyphenoxy)-3-fluorobenzoyl]piperazin-2-one]: the IC50 in data set [9] was determined as 29 nM. The MIC in data set [10] (setting [12]) amounted to 1 µg/mL; in data set [10] (setting [13]), 1 µg/mL (≈ 2.79 µM).

Turning to `CCOC(=O)Oc1cc(CC)c(F)cc1Oc1ccc(C(=O)N2CCNC(=O)C2)cc1F` [Example 3, 4-Fluoro-2-{2-fluoro-4-[(3-oxopiperazin-1-yl)carbonyl]phenoxy}-5-ethylphenyl ethyl carbonate], the IC50 in data set [9] came to 5000 nM.

As to `CCc1cc(O)c(Oc2ccc(C(=O)N3CCN(CC(N)=O)C(=O)C3)cc2F)cc1F` [Example 6, 2-[4-(4-(4-Ethyl-5-fluoro-2-hydroxyphenoxy)-3-fluorobenzoyl]-2-oxopiperazin-1-yl)acetamide], the MIC in data set [2] (broth microdilution, MH broth) came out at 4 µg/mL (≈ 9.23 µM); in data set [3] (broth microdilution, MH broth), 0.25 µg/mL (≈ 0.577 µM).

With `CCc1cc(O)c(Oc2ccc(C(=O)N3CC(=O)NC(=O)C3)cc2F)cc1F` [Example 4, 4-[4-(4-Ethyl-5-fluoro-2-hydroxyphenoxy)-3-fluorobenzoyl]piperazine-2,6-dione], the MIC in data set [2] (broth microdilution, MH broth) came out at 32 µg/mL (≈ 82 µM); in data set [3] (broth microdilution, MH broth) it was 4 µg/mL (≈ 10.2 µM).

On to `CCc1cc(O)c(Oc2ccc(C(=O)N3CCN(C)C(=O)C3)cc2F)cc1F` [Example 5, 4-[4-(4-Ethyl-5-fluoro-2-hydroxyphenoxy)-3-fluorobenzoyl]-1-methylpiperazin-2-one], for which the MIC in [2] (broth microdilution, MH broth) was 1 µg/mL (≈ 2.56 µM); in data set [3] (broth microdilution, MH broth), 0.015 µg/mL (≈ 0.0384 µM).
